Measurements reported in PubChem BioAssay (NCI).
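1) Cells in 96-well plates. 2) Compound, 48 h, 5 concentrations. 3) Linear interpolation between surrounding doses. 4) Unreached endpoint = highest concentration. GI50 = concentration required for 50% inhibition of growth. Definition used: TGI = concentration required for complete inhibition of growth.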

How the values were obtained:
Assay in all cases: NCI-60 cell line screen, 48 h
[1] = test system: SF-268 CNS
[2] = test system: LXFL 529 NSCLC
[3] = test system: MOLT-4 leukemia
[4] = test system: EKVX NSCLC
[5] = test system: SF-539 CNS
[6] = test system: XF 498 CNS
[7] = test system: SN12C renal
[8] = test system: UO-31 renal
[9] = test system: SNB-75 CNS
[10] = test system: DU-145 prostate

SMILES | TGI [1] [µM] | TGI [2] [µM] | TGI [3] [µM] | TGI [4] [µM] | TGI [5] [µM] | TGI [6] [µM] | TGI [7] [µM] | TGI [8] [µM] | TGI [9] [µM] | GI50 [1] [µM] | GI50 [2] [µM] | GI50 [3] [µM] | GI50 [4] [µM] | GI50 [5] [µM] | GI50 [6] [µM] | GI50 [7] [µM] | GI50 [8] [µM] | GI50 [9] [µM] | GI50 [10] [µM] | TGI [10] [µM]
COc1ccc2oc3c(OC)c(OC)c(OC)cc3c(=O)c2c1 | > 100 | > 100 | > 100 | > 100 | > 100 | > 100 | > 100 | > 100 | 84.5 | – | – | – | – | – | – | – | – | – | – | –
CCOC(=O)c1cc(-c2ccc(-c3cc(C(=O)OCC)c(C#N)c(N)c3C#N)cc2)c(C#N)c(N)c1C#N | > 100 | > 100 | > 100 | > 100 | > 100 | > 100 | > 100 | > 100 | – | – | – | – | – | – | – | – | – | – | – | –
Cc1ccc(N=C[N-]c2ccc(C)cc2)cc1.Cc1ccc(N=C[N-]c2ccc(C)cc2)cc1.O=C([O-])C(F)(F)F.O=C([O-])C(F)(F)F.[OH3+].[OH3+].[Rh+2].[Rh+2] | 81.6 | 74.2 | 42.7 | > 100 | 78.7 | 59.4 | > 100 | > 100 | 53.9 | 28.4 | 28.4 | 19 | 50.2 | 26.6 | 22.5 | 34.9 | > 100 | 16.8 | – | –
COCCOc1cc(C)cc(/C=C(C)/C=C/C2=C(C)CCCC2(C)C)n1 | > 100 | > 100 | > 100 | > 100 | > 100 | > 100 | > 100 | > 100 | > 100 | – | – | – | – | – | – | – | – | – | – | –
NC1c2ccccc2Nc2ccccc21 | 13.9 | 17.5 | 8.1 | 20.7 | – | 11.9 | 19 | 13.4 | 24.4 | – | – | – | – | – | – | – | – | – | – | –
O=C(C(=O)n1ncc(Cl)c(Cl)c1=O)n1ncc(Cl)c(Cl)c1=O | > 100 | 41.8 | 43.7 | > 83.8 | > 68.8 | > 93 | > 65.8 | > 100 | 97.2 | – | – | – | – | – | – | – | – | – | – | –
CCCCCC(=O)Nc1nc2nc[nH]c2c(=O)[nH]1 | > 100 | > 100 | > 100 | > 100 | > 100 | > 100 | > 100 | > 100 | > 100 | – | – | – | – | – | – | – | – | – | – | –
Cc1cccc(C(=O)O)c1C(=O)c1cccc2ccccc12 | > 100 | > 100 | > 100 | > 100 | – | – | > 100 | > 100 | > 100 | – | – | – | – | – | – | – | – | – | – | –
CC1=C(SC#N)S(=O)(=O)N(c2ccccc2)C(C)=C1SC#N | > 100 | > 100 | 57.8 | – | > 100 | 72.3 | > 100 | > 100 | 63.9 | – | – | – | – | – | – | – | – | – | – | –
CCCCCCCC1(c2ccc(N)cc2)CCC(=O)NC1=O (configuration not stated) | > 100 | > 100 | 65.7 | > 100 | – | 75.2 | > 100 | 74.8 | 96.2 | – | – | – | – | – | – | – | – | – | – | –
Cc1ccc(NC(=O)C(=O)CC(=O)c2c(C)n([O-])c3ccccc3[n+]2=O)cc1C | > 100 | > 100 | – | > 100 | > 100 | – | > 100 | > 100 | > 100 | – | – | – | – | – | – | – | – | – | – | –
CCC[CH2][Sn]([CH2]CCC)([S]C#N)[S]C#N | 2.26 | 0.749 | 3.23 | 2.99 | 2.55 | 1.98 | 2.52 | 2.98 | 2.08 | 0.802 | 0.122 | 0.462 | 1.36 | 1.24 | 0.779 | 1.18 | 1.61 | 0.592 | – | –
Cc1ccc(C)c(N2C(=O)C(=O)C(c3nc4ccccc4o3)C(=O)C2=O)c1 | > 100 | > 100 | > 100 | > 100 | > 100 | – | > 100 | > 100 | > 100 | – | – | – | – | – | – | – | – | – | – | –
CCCCCCCCCCCCC(O)c1ccco1 (configuration not stated) | 46 | – | 52 | 38.8 | 38.7 | – | 31.7 | 39.7 | 39 | 19.1 | – | 25.4 | 20.8 | 20.9 | – | 17.1 | 19 | 21.1 | 19.3 | 35.1
